# Patent US10913765B2, “Liver specific delivery-based gemcitabine prodrug nucleoside cyclic phosphate compound, and application thereof” (ZHEJIANG PALO ALTO PHARMACEUTICALS, INC., priority 2017, dated 2021)
# Conditions: human, 5 min, 25 μM, pH 7.4
# Protocol: Human liver microsomes (HLM) were purchased from IVT (In Vitro Technologies), article number X008070, lot number IQF.
# Enzymatic reaction was carried out in 100 mM KH2PO4 buffer solution (pH 7.4), the concentration of the test compounds was 25 μM, the concentration of human liver microsomes was 2 mg/ml, and NADPH concentration was 2 mM. The reaction was initiated by NADPH finally added, and after reaction for 5 min in a constant-temperature shaking water bath kettle, 1.5 times of volume of methanol containing internal standard (PMPA) was immediately added to terminate the reaction.
# (§1) Centrifugation was carried out for 20 minutes at a maximum speed of 13,600 rpm using an Eppendorf tabletop centrifuge. Supernatant was taken, and after being blow-dried by a nitrogen blower, the supernatant was re-dissolved into a mobile phase A (0.1% formic acid v/v aqueous solution).
# (§2) Analytical column: Waters, Acquity UPLC HSS T3 column
# Column temperature: 40° C.
# (§3) Ion source: electrospray ionization source
# Ion mode: positive ion mode
# Capillary voltage: 3.0 kV
# Desolventizing airflow speed: 100 L/h
SMILES,Activation Rate (rate of releasing monophosphate product dFdCMP) [pmol/min/mg HLM],Conversion rate to dFdCMP relative to that of PA4004
Nc1ccn([C@@H]2O[C@H](COP3(=O)OCC[C@H](c4cc(Cl)ccc4F)O3)[C@@H](O)C2(F)F)c(=O)n1 (stereo partly drawn) [PA4004],10.98 ± 1.23,
Nc1ccn([C@@H]2O[C@H](COP3(=O)OCC[C@H](c4cc(Cl)cc(Cl)c4)O3)[C@@H](O)C2(F)F)c(=O)n1 (stereo partly drawn) [PA4006],6.92 ± 0.01,
Nc1ccn([C@@H]2O[C@H](COP3(=O)OCC[C@H](c4ccc(F)c(Cl)c4)O3)[C@@H](O)C2(F)F)c(=O)n1 (stereo partly drawn) [PA4008],5.45 ± 0.12,
Nc1ccn([C@@H]2O[C@H](COP3(=O)OCC[C@H](c4ccc(Cl)c(F)c4)O3)[C@@H](O)C2(F)F)c(=O)n1 (stereo partly drawn) [PA4009],10.45 ± 0.85,
Nc1ccn([C@@H]2O[C@H](COP3(=O)OCC[C@H](c4cccc(Cl)c4F)O3)[C@@H](O)C2(F)F)c(=O)n1 (stereo partly drawn) [PA4010],9.56 ± 0.07,

# Now from value to compound:
Activation Rate (rate of releasing monophosphate product dFdCMP) [pmol/min/mg HLM],Conversion rate to dFdCMP relative to that of PA4004,SMILES
35.28 ± 0.81,~3.2 times,Nc1ccn([C@@H]2O[C@H](COP3(=O)OCC[C@H](c4cc(F)ccc4Cl)O3)[C@@H](O)C2(F)F)c(=O)n1 (stereo partly drawn) [PA4011]
38.95 ± 1.17,about 3.5 times,Nc1ccn([C@@H]2O[C@H](COP3(=O)OCC[C@H](c4cc(Cl)ccc4Cl)O3)[C@@H](O)C2(F)F)c(=O)n1 (stereo partly drawn) [PA4012]
7.23 ± 0.53,,Nc1ccn([C@@H]2O[C@H](COP3(=O)OCC[C@H](c4cc(F)ccc4F)O3)[C@@H](O)C2(F)F)c(=O)n1 (stereo partly drawn) [PA4013]
6.49 ± 0.19,,Nc1ccn([C@@H]2O[C@H](COP3(=O)OCC[C@H](c4cccc(F)c4F)O3)[C@@H](O)C2(F)F)c(=O)n1 (stereo partly drawn) [PA4014]
4.32 ± 0.76,,Nc1ccn([C@@H]2O[C@H](COP3(=O)OCC[C@H](c4ccc(F)c(F)c4)O3)[C@@H](O)C2(F)F)c(=O)n1 (stereo partly drawn) [PA4017]
7.62 ± 0.48,,Nc1ccn([C@@H]2O[C@H](COP3(=O)OCC[C@H](c4cccc(Cl)c4Cl)O3)[C@@H](O)C2(F)F)c(=O)n1 (stereo partly drawn) [PA4018]
5.25 ± 0.13,,Nc1ccn([C@@H]2O[C@H](COP3(=O)OCC[C@H](c4ccc(Cl)c(Cl)c4)O3)[C@@H](O)C2(F)F)c(=O)n1 (stereo partly drawn) [PA4021]

# Conditions: human, 5 min, 25 μM, pH 7.4
# Remark: another data set of the same source
# Protocol: Human liver microsomes (HLM) were purchased from IVT (In Vitro Technologies), lot number SSP, article number X008070.
# Enzymatic reaction was carried out in 100 mM KH2PO4 buffer solution (pH 7.4), the concentration of the test compounds was 25 M, the concentration of human liver microsomes was 2 mg/ml, and NADPH concentration was 2 mM. The reaction was initiated by NADPH finally added, and after reaction for 5 min in a constant-temperature shaking water bath kettle, 1.5 times of volume of methanol containing internal standard (PMPA) was immediately added to terminate the reaction.
# as §1, §2
# Column temperature: 40° C.
# as §3
# Ion mode: positive ion mode
# Capillary voltage: 3.0 kV
# Desolventizing airflow speed: 100 L/h
SMILES,Conversion rate to dFdCMP relative to that of PA4001 [times],Conversion rate to dFdCMP relative to that of PA4003
Nc1ccn([C@@H]2O[C@H](COP3(=O)OCC[C@H](c4cc(F)cc(Cl)c4)O3)[C@@H](O)C2(F)F)c(=O)n1 (stereo partly drawn) [PA4002],1.0,about 7.3 times
Nc1ccn([C@@H]2O[C@H](COP3(=O)OCC[C@H](c4cc(Cl)ccc4F)O3)[C@@H](O)C2(F)F)c(=O)n1 (stereo partly drawn) [PA4004],1.3,~9.5 times
